From article PMC3914206

How the values were obtained:
panel of 442 kinases [1] = molecular target: T1, panel of 442 kinases (Homo sapiens, UniProt Q9NRP7); assay type: binding; settings: kinase STK36; compound concentration 10 µM
T1 construct: purchased KINOMEscan
T1 sequence (Q9NRP7 1-1315): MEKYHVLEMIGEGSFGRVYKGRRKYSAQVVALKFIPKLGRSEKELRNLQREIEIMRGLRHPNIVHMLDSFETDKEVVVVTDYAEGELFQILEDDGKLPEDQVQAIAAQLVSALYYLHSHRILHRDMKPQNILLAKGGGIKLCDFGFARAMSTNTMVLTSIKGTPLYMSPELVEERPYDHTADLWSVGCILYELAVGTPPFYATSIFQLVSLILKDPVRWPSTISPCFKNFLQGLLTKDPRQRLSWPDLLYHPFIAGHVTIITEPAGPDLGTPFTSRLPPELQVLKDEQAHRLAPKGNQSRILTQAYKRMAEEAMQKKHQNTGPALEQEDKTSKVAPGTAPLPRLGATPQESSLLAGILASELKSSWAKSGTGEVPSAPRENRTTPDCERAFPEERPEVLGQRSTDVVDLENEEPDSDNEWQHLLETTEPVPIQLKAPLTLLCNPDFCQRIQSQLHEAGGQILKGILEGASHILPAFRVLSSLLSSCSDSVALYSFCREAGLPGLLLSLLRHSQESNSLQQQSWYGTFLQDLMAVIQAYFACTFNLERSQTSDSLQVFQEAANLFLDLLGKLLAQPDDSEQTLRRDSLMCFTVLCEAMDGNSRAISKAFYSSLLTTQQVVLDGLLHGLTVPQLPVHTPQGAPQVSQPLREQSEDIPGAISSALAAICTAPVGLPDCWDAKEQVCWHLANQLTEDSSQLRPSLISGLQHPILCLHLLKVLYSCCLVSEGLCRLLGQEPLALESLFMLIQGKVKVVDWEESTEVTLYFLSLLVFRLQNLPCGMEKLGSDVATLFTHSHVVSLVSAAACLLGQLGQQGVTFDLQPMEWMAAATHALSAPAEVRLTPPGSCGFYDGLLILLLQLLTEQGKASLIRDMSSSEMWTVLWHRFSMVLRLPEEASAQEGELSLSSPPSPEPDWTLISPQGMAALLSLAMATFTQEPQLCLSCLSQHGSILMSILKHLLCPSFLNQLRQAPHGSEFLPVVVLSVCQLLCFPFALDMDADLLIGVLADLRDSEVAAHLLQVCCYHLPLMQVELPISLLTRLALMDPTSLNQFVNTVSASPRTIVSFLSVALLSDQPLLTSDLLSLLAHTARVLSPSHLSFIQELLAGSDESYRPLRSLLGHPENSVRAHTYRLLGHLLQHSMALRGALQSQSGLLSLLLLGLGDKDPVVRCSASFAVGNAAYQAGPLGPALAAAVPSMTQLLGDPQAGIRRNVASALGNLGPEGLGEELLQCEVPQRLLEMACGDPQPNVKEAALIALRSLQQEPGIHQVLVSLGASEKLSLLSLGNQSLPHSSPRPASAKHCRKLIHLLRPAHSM
Text: (§1) We assessed the selectivity of members of this scaffold using the KINOMEscan methodology across a near comprehensive panel of 442 kinases [[18,27]].

panel of 442 kinases [2] = molecular target: T2, panel of 442 kinases (Homo sapiens, UniProt Q8NEV4); assay type: binding; settings: Compound Concentration 10 µM
T2 construct: purchased KINOMEscan
Text: as §1

T2 sequence (Q8NEV4 whole entry): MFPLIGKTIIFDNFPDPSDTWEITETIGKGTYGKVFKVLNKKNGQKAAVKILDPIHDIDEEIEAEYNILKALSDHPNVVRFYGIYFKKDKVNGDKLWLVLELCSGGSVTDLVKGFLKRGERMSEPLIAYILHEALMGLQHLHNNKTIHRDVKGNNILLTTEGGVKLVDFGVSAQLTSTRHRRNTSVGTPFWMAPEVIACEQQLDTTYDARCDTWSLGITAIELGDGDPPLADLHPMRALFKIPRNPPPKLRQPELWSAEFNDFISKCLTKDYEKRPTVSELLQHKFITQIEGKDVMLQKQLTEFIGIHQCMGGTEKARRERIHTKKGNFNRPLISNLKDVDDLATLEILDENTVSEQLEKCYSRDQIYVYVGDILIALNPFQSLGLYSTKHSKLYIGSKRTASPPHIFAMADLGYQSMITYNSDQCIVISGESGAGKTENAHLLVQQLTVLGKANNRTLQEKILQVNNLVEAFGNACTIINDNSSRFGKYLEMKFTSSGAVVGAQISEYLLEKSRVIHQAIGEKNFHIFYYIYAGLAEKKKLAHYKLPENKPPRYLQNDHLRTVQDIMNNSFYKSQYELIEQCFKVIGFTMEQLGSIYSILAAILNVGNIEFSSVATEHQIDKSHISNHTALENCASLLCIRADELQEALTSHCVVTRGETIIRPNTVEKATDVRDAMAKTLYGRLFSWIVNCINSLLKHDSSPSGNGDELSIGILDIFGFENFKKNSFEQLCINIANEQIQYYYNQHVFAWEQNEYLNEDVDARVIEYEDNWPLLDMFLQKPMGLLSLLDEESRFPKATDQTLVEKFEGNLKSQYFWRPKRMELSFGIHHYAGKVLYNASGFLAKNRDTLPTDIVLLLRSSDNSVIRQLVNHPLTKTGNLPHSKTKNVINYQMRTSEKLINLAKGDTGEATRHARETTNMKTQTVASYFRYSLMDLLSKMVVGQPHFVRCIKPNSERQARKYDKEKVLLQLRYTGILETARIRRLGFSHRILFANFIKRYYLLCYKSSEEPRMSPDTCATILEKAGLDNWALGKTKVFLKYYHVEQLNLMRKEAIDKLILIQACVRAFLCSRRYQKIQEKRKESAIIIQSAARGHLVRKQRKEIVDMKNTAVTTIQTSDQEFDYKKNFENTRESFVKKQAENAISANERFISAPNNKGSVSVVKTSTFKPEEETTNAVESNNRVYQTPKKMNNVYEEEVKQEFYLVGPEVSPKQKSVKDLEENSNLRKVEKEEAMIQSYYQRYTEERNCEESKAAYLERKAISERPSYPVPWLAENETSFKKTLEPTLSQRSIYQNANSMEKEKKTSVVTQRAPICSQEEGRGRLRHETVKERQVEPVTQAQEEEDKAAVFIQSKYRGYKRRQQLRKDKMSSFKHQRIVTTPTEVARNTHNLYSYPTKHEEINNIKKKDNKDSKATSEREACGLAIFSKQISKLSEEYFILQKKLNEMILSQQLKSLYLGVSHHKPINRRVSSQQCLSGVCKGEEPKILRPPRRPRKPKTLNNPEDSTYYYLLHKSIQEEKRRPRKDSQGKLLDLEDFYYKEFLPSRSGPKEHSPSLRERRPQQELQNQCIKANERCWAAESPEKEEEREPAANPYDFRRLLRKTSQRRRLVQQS

Compound	% Ctrl, STK36 (panel of 442 kinases [1]) [% Ctrl]	KINOMEscan: MYO3A (panel of 442 kinases [2])
COc1cc(C(=O)N2CCC(N3CCN(C)CC3)CC2)ccc1Nc1ncc2c(n1)N(C)c1ccccc1C(=O)N2C [15 (LRRK2-IN-1)]	97	94
COc1cc(C(=O)N2CCC(N3CCN(C)CC3)CC2)ccc1Nc1ncc2c(n1)N(C1CCCC1)c1ccccc1C(=O)N2C [Compound 25, 11-cyclopentyl-2-((2-methoxy-4-(4-(4-methylpiperazin-1-yl)piperidine-1-carbonyl)phenyl)amino)-5-methyl-5H-benzo[e]pyrimido[5,4-b][1,4]diazepin-6(11H)-one]	96	86
CCOc1cc(C(=O)N2CCC(N3CCN(C)CC3)CC2)ccc1Nc1ncc2c(n1)N(C1CCCC1)c1ccccc1C(=O)N2C [Compound 26]	99	100
